A short description of series [1]: Octanol-water distribution coefficient, log D at pH 7.4. The format is physicochemical.
A further series in a line: in vitro. As to conditions: human, liver microsomes. On the technique in general: Liver microsomes are vesicles of endoplasmic reticulum, rich in cytochrome P450 enzymes.
Series [2] can be described thus: Volume of distribution in rat at 5 mg/kg, iv administered as single dose. The series is classed as ADME, organism-based. Also on record: dose 5 mg/kg, route intravenous. The note with it: in vivo.
Series [3] is described as follows: Elimination half life in rat at 5 mg/kg, iv administered as single dose. The series is classed as ADME, organism-based. More on the design: dose 5 mg/kg, route intravenous. The note with it: in vivo, read-out: beta t1/2 (converted).
Series [4] is described as follows: Plasma clearance in rat at 5 mg/kg, iv administered as single dose. The format is ADME, organism-based. Also on record: dose 5 mg/kg, route intravenous.

A word on the logD: it is lipophilicity at a set pH, counting ionised and neutral species. A lower logD goes with a more hydrophilic compound. By Vd is commonly meant a proportionality between amount in the body and measured concentration, not a real space. Broadly, the clearance is a measure of how efficiently the substance is removed, as volume per time. Low values mean a low capacity for elimination, high ones a high capacity for elimination.

Each structure is given as a SMILES string. A value given as a limit tells only on which side of the number the result lay.

As for `Clc1cccc(OC(c2ccccn2)[C@H]2CCNC2)c1Cl` (some centres undefined), the logD in series [1] turned out to be 0.9. The compound also displayed a half-life in the series “in vitro” above 2 h.

For `Cc1ccc(C(Oc2cccc(Cl)c2Cl)C2CCNCC2)cn1` (centres undefined), in “in vitro”, the half-life was above 2 h.

In series [2], `Clc1cccc(OC(c2cccnc2)C2CCNCC2)c1Cl` (single isomer, unassigned; enantiomer 1) yielded a Vd of 33 L/kg. Moreover, the results for the half-life (in series [3]; in the series “in vitro”) were 2 h and above 2 h, respectively. The compound also registered a logD in series [1] of 1.2. The same compound returned a clearance in series [4] of 180 mL/min/kg.

In the case of `CNCC[C@H](Oc1cccc2ccccc12)c1cccs1` [DULOXETINE], the half-life in “in vitro” was above 2 h.

The values are drawn from ChEMBL document CHEMBL1151858, “4-Piperidines and 3-pyrrolidines as dual serotonin and noradrenaline reuptake inhibitors: design, synthesis and structure-activity relationships” (Bioorg Med Chem Lett, 2009).
